In patent US6417394B2, “Specific salt forms of triphenylethylene derivatives as selective estrogen receptor modulators” (Bristol Myers Squibb Pharma Company, priority 2000, dated 2002):

Test: aqueous equilibrium solubility
Format: physicochemical
Conditions: aqueous suspension on a rotator for 48 hours at room temperature; filtered 0.45-micrometer PTFE; HPLC
Method: The aqueous equilibrium solubility of 3-[4(1,2-diphenyl-but-1-enyl)-phenyl]-acrylic acid, a SERM compound, and its meglumine and lysine salts were determined by placing aqueous suspensions of the corresponding compound on a rotator for 48 hours at room temperature. The samples were filtered using a 0.45-micrometer PTFE filter and analyzed by HPLC. The pH of the filtrate was also determined.

equilibrium aqueous solubility [µg/mL]	SMILES
700	CCC(=C(c1ccccc1)c1ccc(C=CC(=O)O)cc1)c1ccccc1 [3-[4(1,2-diphenyl-but-1-enyl)-phenyl]-acrylic acid (meglumin]
8.6	CCC(=C(c1ccccc1)c1ccc(C=CC(=O)O)cc1)c1ccccc1 [3-[4(1,2-diphenyl-but-1-enyl)-phenyl]-acrylic acid (free aci]
400	CCC(=C(c1ccccc1)c1ccc(C=CC(=O)O)cc1)c1ccccc1 [3-[4(1,2-diphenyl-but-1-enyl)-phenyl]-acrylic acid (lysine s]
